Measured values taken from patent US6376488B1, “Benzoxazine α-1 adrenergic compounds” (Abbott Laboratories, priority 2000, dated 2002).
Where a name gives a salt, the structure may show the parent alone.

Experiments:
[1] = biological target: T1, α1a (rat) adrenoreceptor (Rattus norvegicus, UniProt P43140); test: [3H]-prazosin radioligand binding, cloned α1a (rat) adrenoreceptor in LTK cells; conditions: cloned receptor in LTK cell membranes, [3H]prazosin 0.2 nM
T1 sequence (P43140 1-466): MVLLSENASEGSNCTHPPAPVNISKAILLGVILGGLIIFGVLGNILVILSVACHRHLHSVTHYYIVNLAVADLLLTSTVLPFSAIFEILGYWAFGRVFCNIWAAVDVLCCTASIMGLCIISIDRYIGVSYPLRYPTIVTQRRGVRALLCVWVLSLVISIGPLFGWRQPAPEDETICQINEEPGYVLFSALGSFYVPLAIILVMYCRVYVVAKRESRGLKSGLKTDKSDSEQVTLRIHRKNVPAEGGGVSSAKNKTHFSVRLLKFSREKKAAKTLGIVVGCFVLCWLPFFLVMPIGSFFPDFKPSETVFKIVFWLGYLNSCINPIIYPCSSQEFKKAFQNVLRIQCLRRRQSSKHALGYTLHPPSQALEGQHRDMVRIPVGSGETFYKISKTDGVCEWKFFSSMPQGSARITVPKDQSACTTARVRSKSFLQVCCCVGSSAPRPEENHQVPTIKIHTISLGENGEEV
Text: (§1) The cDNA clones encoding the α1, adrenoreceptors were obtained from TULCO (Triangle Universities Licensing Consortium, Research Triangle Park, N.C.) and inserted into the eukaryotic expression vector SnaB30. In this vector, expression of the adrenoreceptor gene is under the transcriptional control of an SV40 early promoter. Positive drug selection is provided by a neomycin-resistance gene. Mouse fibroblast cells (LTK) were transfected with the α1 expression plasmids and grown in Dulbecco's modified Eagle's medium (DMEM) containing 10% fetal calf serum and 30 μM G418. […] Stable single cell clones derived from the parental lines were screened in adrenoreceptor binding assays to identify clones having high adrenoreceptor density. Roller bottle cultures of the cloned lines were used to provide cell membranes for subsequent adrenoreceptor binding characterization studies. A cell line containing the SnaB30 vector expressing the human erythropoietin gene served as a negative control.
(§2) For adrenoreceptor binding assays, large scale membrane preparations were utilized in which 6 million cells were seeded into small (450 cm^2) Coming tissue culture roller bottles. DMEM (200 mL) containing 10% fetal calf serum and 300 μM G418 were added to each roller bottle. A 95% air/5% CO2 gas mixture (sterile) was injected into each roller bottle prior to sealing, and the bottles were then incubated at 37° C. on a roller rack for 5 days. Cells were refed with fresh medium after 3 days in culture.
(§3) On the fifth day of culture, growth medium was removed from cells grown in roller bottles, and the cells were washed twice with PBS (Sigma, 120 mM NaCl, 2.7 mM KCl, 10 mM Na2HPO4-NaH2PO4, pH=7.4). Cells were detached from the roller bottles by incubating for 15 minutes at 37° C. in a Tris-EDTA solution (10 mM Tris, 100 mM NaCl, 1 mM EDTA, pH=7.4). The cell suspension from each roller bottle was decanted into tared centrifuge tubes and kept on ice. An aliquot of each cell suspension was generally taken for cell counting. Cells were centrifuged at 3000×G for 5 minutes at 2-4° C., washed with PBS and recentrifuged. The supernatant was decanted, and the pellet was weighed to determine the wet weight of cells. Cells were washed a final time in 40 vol 5 mM Tris-HCl, 5 mM EDTA, pH=7.7 and centrifuged at 40,000×G for 10 minutes (“vol” indicates volume/weight, e.g., a “vol” of 40 would indicate that the one gram of cells were washed with 40 mls of buffer). Cells were homogenized in of 50 mM Tris-HCl, 5 mM EDTA (pH=7.4) (10 mL) and diluted to 40 mL/tube. Homogenates were centrifuged at 40,000×G for 10 minutes. The supernatant was decanted and the pellets rehomogenized in 50 mM Tris-HCl (pH=7.4) and centrifuged as before.
(§4) Following equilibration, bound radioligand was separated from free on GF/B filters (presoaked in 0.5% polyethyleneimine) using ither a Brandel or Packard cell harvester. Radioactivity was determined by standard liquid scintillation techniques.

[2] = biological target: T2, α1b (Hamster) adrenoreceptor (Mesocricetus auratus, UniProt P18841); test: [3H]-prazosin radioligand binding, cloned α1b (hamster) adrenoreceptor in LTK cells; conditions: cloned receptor in LTK cell membranes, [3H]prazosin 0.2 nM
T2 sequence (P18841 1-515): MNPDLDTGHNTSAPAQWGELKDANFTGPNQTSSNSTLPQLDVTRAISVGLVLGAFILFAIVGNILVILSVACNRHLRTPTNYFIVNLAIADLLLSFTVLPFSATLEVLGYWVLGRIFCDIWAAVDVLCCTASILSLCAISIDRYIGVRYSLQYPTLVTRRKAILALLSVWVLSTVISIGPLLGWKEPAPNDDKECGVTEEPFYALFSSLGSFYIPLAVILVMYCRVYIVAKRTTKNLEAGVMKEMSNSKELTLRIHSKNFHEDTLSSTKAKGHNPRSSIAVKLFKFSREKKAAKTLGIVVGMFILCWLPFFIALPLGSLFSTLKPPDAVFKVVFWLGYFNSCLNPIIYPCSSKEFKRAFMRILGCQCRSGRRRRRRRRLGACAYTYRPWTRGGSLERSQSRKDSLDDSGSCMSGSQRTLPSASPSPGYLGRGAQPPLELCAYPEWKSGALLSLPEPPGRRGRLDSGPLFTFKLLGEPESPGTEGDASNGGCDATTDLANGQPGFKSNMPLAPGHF
Text: as §1, §2, §3, §4

| Molecule | Ki [1] | Ki [2] |
| --- | --- | --- |
| COc1cccc2c1N1CCN(CCn3c(=O)[nH]c4c(sc5ncc(Cl)nc54)c3=O)CC1CO2.Cl.Cl (single isomer, unassigned; (-)) [Example 13, (−) 3-[2-(10-methoxy-1,2,4a,5-tetrahydropyrazino[2,1-c][1,4]benzoxazin-3(4H)-yl)ethyl]-8-chloropyrazino[2′,3′:4,5]thieno[3,2-d]pyrimidine-2,4(1H,3H)-dione dihydrochloride] | 1.55 nM | 39.1 nM |
| COc1cccc2c1N1CCN(CCCn3c(=O)[nH]c4c(sc5cccnc54)c3=O)CC1CO2.Cl.Cl.Cl (single isomer, unassigned; (+)) [Example 17, (+) 3-[3-(10-methoxy-1,2,4a,5-tetrahydropyrazino[2,1-c][1,4]benzoxazin-3(4H)-yl)propyl]pyrido[2′,3′:4,5]thieno[3,2-d]pyrimidine-2,4(1H,3H)-dione trihydrochloride] | 4.44 nM | 40.4 nM |
| Cl.Cl.O=c1[nH]c2c(sc3cccnc32)c(=O)n1CCCN1CCN2c3ccccc3OCC2C1 (single isomer, unassigned; (+)) [Example 1, (+) 3-[3-(1,2,4a,5-tetrahydropyrazino[2,1-c][1,4]benzoxazin-3(4H)-yl)propyl]pyrido[2′,3′:4,5]thieno[3,2-d]pyrimidine-2,4(1H,3H)-dione dihydrochloride] | 1.84 nM | 14.3 nM |
| COc1cccc2c1N1CCN(CCCCn3c(=O)[nH]c4c(sc5cccnc54)c3=O)CC1CO2 (single isomer, unassigned; (+)) [Example 14, (+) 3-[4-(10-methoxy-1,2,4a,5-tetrahydropyrazino[2,1-c][1,4]benzoxazin-3(4H)-yl)butyl]pyido [2′,3′:4,5]thieno[3,2-d]pyrimidine-2,4(1H,3H)-dione trihydrochloride] | 0.29 nM | 8.32 nM |
| COc1cccc2c1N1CCN(CCCCn3c(=O)[nH]c4c(sc5ncccc54)c3=O)CC1CO2.Cl.Cl.Cl (single isomer, unassigned; (+)) [Example 15, (+) 3-[4-(10-methoxy-1,2,4a,5-tetrahydropyrazino[2,1-c][1,4]benzoxazin-3(4H)-yl)butyl]pyrido[3′,2′:4,5]thieno[3,2-d]pyrimidine-2,4(1H,3H)-dione trihydrochloride] | 0.447 nM | 13.8 nM |
| COc1cccc2c1N1CCN(CCCn3c(=O)[nH]c4c(sc5cccnc54)c3=O)CC1CO2.Cl.Cl.Cl (single isomer, unassigned; (-)) [Example 9, (−) 3-[3-(10-methoxy-1,2,4a,5-tetrahydropyrazino[2,1-c][1,4]benzoxazin-3(4H)-yl)propyl]pyrido[2′,3′:4,5]thieno[3,2-d]pyrimidine-2,4(1H, 3H)-dione trihydrochloride] | 0.359 nM | 3.86 nM |
| Cl.Cl.O=c1[nH]c2c(sc3ncccc32)c(=O)n1CCCCN1CCN2c3ccccc3OCC2C1 (single isomer, unassigned; (+)) [Example 5, (+) 3-[4-(1,2,4a,5-tetrahydropyrazino[2,1-c][1,4]benzoxazin-3(4H)-yl)butyl]pyrido[3′, 2′:4,5]thieno[3,2-d]pyrimidine-2,4(1H,3H)-dione dihydrochloride] | 5.02 nM | 40.6 nM |
| COc1cccc2c1N1CCN(CCn3c(=O)[nH]c4c(sc5cccnc54)c3=O)CC1CO2.Cl.Cl.Cl (single isomer, unassigned; (+)) [Example 16, (+) 3-[2-(10-methoxy-1,2,4a,5-tetrahydropyrazino[2,1-c][1,4]benzoxazin-3(4H)-yl)ethyl]pyrido[2′,3′:4,5]thieno[3,2-d]pyrimidine-2,4(1H,3H)-dione trihydrochloride] | 1.24 nM | 11.8 nM |
| COc1cccc2c1N1CCN(CCn3c(=O)[nH]c4c(sc5cccnc54)c3=O)CC1CO2.Cl.Cl (single isomer, unassigned; (-)) [Example 7, (−) 3-[2-(10methoxy-1,2,4a,5-tetrahydropyrazino[2,1-c][1,4]benzoxazin-3(4H)-yl)ethyl]pyrido[2′,3′:4,5]thieno[3,2-d]pyrimidine-2,4(1H,3H)-dione dihydrochloride] | 0.864 nM | 6.89 nM |
| Cl.Cl.O=c1[nH]c2c(sc3cccnc32)c(=O)n1CCCCN1CCN2c3ccccc3OCC2C1 (single isomer, unassigned; (+)) [Example 3, (+) 3-[4-(1,2,4a,5-tetrahydropyrazino[2,1-c][1,4]benzoxazin-3(4H)-yl)butyl]pyrido[2′, 3′:4,5]thieno[3,2-d]pyrimidine-2,4(1H,3H)-dione dihydrochloride] | 2.85 nM | 32.4 nM |
| COc1cccc2c1N1CCN(CCCCn3c(=O)[nH]c4c(sc5ncccc54)c3=O)CC1CO2 (single isomer, unassigned; (-)) [Example 11, (−) 3-[4-(10-methoxy-1,2,4a,5-tetrahydropyrazino[2,1-c][1,4]benzoxazin-3(4H)-yl)butyl]pyrido[3′,2′:4.5]thieno[3,2-d]pyrimidine-2,4(1H,3H)-dione trihydrochloride] | 0.24 nM | 2.71 nM |
| COc1cccc2c1N1CCN(CCn3c(=O)[nH]c4c(sc5ncc(Cl)nc54)c3=O)CC1CO2.Cl.Cl (single isomer, unassigned; (+)) [Example 8, (+) 3-[2-(10-methoxy-1,2,4a,5-tetrahydropyrazino[2,1-c][1,4]benzoxazin-3(4H)-yl)ethyl]-8-chloropyrazino[2′,3′:4,5]thieno[3,2-d]pyrimidine-2,4(1H,3H)-dione dihydrochloride] | 1.78 nM | 58.1 nM |
| O=c1[nH]c2c(sc3cccnc32)c(=O)n1CCCCN1CCN2c3ccccc3OCC2C1 (single isomer, unassigned; (-)) [Example 4, (−) 3-[4-(1.2,4a,5-tetrahydropyrazino[2,1-c][1,4benzoxazin-3(4H)-yl)butyl]pyrido[2′,3′:4,5]thieno[3,2-d]pyrimidine-2,4(1H,3H)-dione dihydrochloride] | 6.62 nM | 26.5 nM |
| COc1cccc2c1N1CCN(CCCCn3c(=O)[nH]c4c(sc5ncc(Cl)nc54)c3=O)CC1CO2.Cl.Cl (single isomer, unassigned; (-)) [Example 12, (−) 3-[4-(10-methoxy-1,2,4a,5-tetrahydropyrazino[2,1-c][1,4]benzoxazin-3(4H)-yl)butyl]-8-chloropyrazino[2′,3′:4,5]thieno[3,2-d]pyrimidine-2,4(1H,3H)-dione dihydrochloride] | 0.648 nM | 8.91 nM |
| (−) 3-[3-(10-methoxy-1,2,4a,5-tetrahydropyrazino[2,1-c][1,4]benzoxazin-3(4H)-yl)butyl]pyrido[2′,3′:4,5]thieno[3,2-d]pyrimidine-2,4(1H,3H)-dione trihydrochloride [Example 10] | 0.257 nM | 1.81 nM |
